How the values were obtained:
[1] = system: CCRF-CEM; experiment: Protection against methotrexate-induced effect in human CCRF-CEM cells assessed as growth inhibition at 0.1 mM; assay type: functional; set-up: scale not given: the % may be the effect or the level left
[2] = system: CCRF-CEM; experiment: Protection against compound 4- or 5-induced effect in human CCRF-CEM cells assessed as growth inhibition at […]; set-up: scale not given: the % may be the effect or the level left
[3] = target: T1, Dihydrofolate reductase (Homo sapiens, UniProt P00374)
T1 sequence (P00374 whole entry): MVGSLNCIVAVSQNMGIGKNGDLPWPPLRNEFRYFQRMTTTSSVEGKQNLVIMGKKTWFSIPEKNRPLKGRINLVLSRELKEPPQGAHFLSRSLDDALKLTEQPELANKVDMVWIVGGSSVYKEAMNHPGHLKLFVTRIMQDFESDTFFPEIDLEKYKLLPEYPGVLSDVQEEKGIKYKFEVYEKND

[4] = target: T2, Dihydrofolate reductase (Escherichia coli, UniProt P0ABQ4)
T2 sequence (P0ABQ4 whole entry): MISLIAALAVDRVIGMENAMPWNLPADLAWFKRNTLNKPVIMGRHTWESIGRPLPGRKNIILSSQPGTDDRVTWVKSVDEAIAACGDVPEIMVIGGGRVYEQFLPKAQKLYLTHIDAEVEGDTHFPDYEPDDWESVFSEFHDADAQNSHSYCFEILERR
Description: Inhibition of Escherichia coli DHFR

[5] = target: T3, Folylpolyglutamate synthase, mitochondrial (Homo sapiens) (UniProt Q05932); experiment: Ratio of relative Vmax to Km of human recombinant FPGS
T3 sequence (whole entry): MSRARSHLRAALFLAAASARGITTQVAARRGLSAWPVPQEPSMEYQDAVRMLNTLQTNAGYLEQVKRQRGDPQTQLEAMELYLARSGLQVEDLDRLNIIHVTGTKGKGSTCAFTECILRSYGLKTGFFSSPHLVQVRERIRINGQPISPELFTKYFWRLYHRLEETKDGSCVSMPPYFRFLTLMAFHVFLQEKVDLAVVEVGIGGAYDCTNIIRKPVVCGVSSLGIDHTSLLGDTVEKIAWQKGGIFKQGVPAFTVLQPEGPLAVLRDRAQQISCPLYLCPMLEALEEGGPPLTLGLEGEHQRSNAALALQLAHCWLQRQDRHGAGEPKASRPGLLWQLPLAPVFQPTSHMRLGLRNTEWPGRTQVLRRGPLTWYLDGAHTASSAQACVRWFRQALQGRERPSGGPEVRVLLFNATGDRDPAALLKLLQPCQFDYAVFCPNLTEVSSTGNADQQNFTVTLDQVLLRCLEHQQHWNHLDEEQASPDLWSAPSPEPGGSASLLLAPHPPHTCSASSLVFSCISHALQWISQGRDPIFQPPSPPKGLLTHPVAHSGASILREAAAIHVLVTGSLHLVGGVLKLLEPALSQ

[6] = system: R2; experiment: Growth inhibition of MTX-resistant human CCRF-CEM R2 cells; assay type: functional, cell-based
[7] = system: R1; experiment: Growth inhibition of MTX-resistant human CCRF-CEM R1 cells overexpressing DHFR
[8] = target: Thymidylate synthase (Escherichia coli, UniProt C3SWJ7); experiment: Inhibition of Escherichia coli thymidylate synthase
[9] = system: CCRF-CEM; experiment: Growth inhibition of human CCRF-CEM cells; assay type: functional, cell-based
[10] = system: CCRF-CEM; experiment: Growth inhibition of MTX-resistant human CCRF-CEM R30dm cells; assay type: functional, cell-based
[11] = system: CCRF-CEM; experiment: Growth inhibition of human CCRF-CEM leukemia cells at 5000 nM relative to leucovorin; assay type: functional
[12] = Cytotoxicity against human CCRF-CEM leukemia cells; assay type: cell-based
[13] = Cytotoxicity against human EKVX cells; assay type: cell-based
[14] = Cytotoxicity against HCC2998 cells; assay type: cell-based, HCC 2998; settings: human
[15] = system: SF-268; experiment: Cytotoxicity against SF268 cells; assay type: functional; settings: Homo sapiens
[16] = Cytotoxicity against NCI/ADR-RES cells; assay type: cell-based; settings: human
[17] = Cytotoxicity against BT549 cells; assay type: cell-based, BT-549; settings: human
[18] = target: Thymidylate synthase (Homo sapiens, UniProt P04818)
Description: Inhibition of human thymidylate synthase

[19] = system: CCRF-CEM; experiment: Growth inhibition of human CCRF-CEM leukemia cells at 2400 nM relative to leucovorin; assay type: functional
[20] = system: CCRF-CEM; experiment: Protection against 40 nM methotrexate-induced growth inhibition of human CCRF-CEM leukemia cells at 5 uM relative to control; assay type: functional; set-up: scale not given: the % may be the effect or the level left
[21] = system: CCRF-CEM; experiment: Protection against 5000 nM N-[4-[(2-amino-6-methyl-3,4-dihydro-4-oxo-7H-pyrrolo[2,3-d]pyrimidin-5-yl)thio]-2fluorobenzoyl]-L-glutamic acid-induced growth inhibition of human CCRF-CEM cells at 5 uM relative to control; assay type: functional; set-up: scale not given: the % may be the effect or the level left
[22] = system: CCRF-CEM; experiment: Protection against 2400 nM N-[4-[(2-amino-6-methyl-3,4-dihydro-4-oxo-7H-pyrrolo[2,3-d]pyrimidin-5-yl)thio]-2chlorobenzoyl]-L-glutamic acid-induced growth inhibition of human CCRF-CEM cells at 5 uM relative to control; assay type: functional; set-up: scale not given: the % may be the effect or the level left
[23] = system: CCRF-CEM; experiment: Growth inhibition of human CCRF-CEM cells by thymidine at 5 uM relative to control; set-up: scale not given: the % may be the effect or the level left
[24] = substrate: Cc1[nH]c2nc(N)[nH]c(=O)c2c1Sc1ccc(C(=O)N[C@@H](CCC(=O)O)C(=O)O)c(Cl)c1; experiment: (§1) Activity of human recombinant FPGS
[25] = substrate: Cc1[nH]c2nc(N)[nH]c(=O)c2c1Sc1ccc(C(=O)N[C@@H](CCC(=O)O)C(=O)O)c(F)c1; experiment: as §1
[26] = substrate: Nc1nc(N)c2nc(CNc3ccc(C(=O)N[C@@H](CCC(=O)O)C(=O)O)cc3)cnc2n1; experiment: as §1
[27] = substrate: Cc1[nH]c2nc(N)[nH]c(=O)c2c1Sc1ccc(C(=O)N[C@@H](CCC(=O)O)C(=O)O)c(Cl)c1; experiment: (§2) Activity of human recombinant FPGS relative to AMT
[28] = substrate: Cc1[nH]c2nc(N)[nH]c(=O)c2c1Sc1ccc(C(=O)N[C@@H](CCC(=O)O)C(=O)O)c(F)c1; experiment: as §2

Chain of Thymidylate synthase (Escherichia coli, UniProt C3SWJ7) (C3SWJ7 whole entry): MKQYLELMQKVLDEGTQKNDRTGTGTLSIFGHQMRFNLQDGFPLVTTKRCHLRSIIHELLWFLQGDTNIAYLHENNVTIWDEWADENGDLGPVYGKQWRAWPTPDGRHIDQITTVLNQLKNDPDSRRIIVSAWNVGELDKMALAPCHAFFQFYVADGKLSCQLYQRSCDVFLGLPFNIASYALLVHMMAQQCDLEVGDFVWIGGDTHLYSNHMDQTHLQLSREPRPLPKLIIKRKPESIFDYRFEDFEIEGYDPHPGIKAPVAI
Chain of Thymidylate synthase (Homo sapiens, UniProt P04818) (P04818 whole entry): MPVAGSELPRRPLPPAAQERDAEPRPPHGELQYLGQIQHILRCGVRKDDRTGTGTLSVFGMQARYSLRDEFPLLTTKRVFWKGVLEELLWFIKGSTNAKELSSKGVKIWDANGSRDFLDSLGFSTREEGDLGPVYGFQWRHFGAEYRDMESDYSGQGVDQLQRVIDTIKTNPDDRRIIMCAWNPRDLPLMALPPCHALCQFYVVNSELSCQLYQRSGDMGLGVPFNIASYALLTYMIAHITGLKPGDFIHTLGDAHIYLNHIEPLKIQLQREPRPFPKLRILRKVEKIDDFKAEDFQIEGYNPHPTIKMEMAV

Work on `Nc1nc(=O)c2c([nH]1)NCC(CNc1ccc(C(=O)N[C@@H](CCC(=O)O)C(=O)O)cc1)N2C=O` (some centres not stated) [LEUCOVORIN] yielded an Activity [1] of 6% and an Activity [2] of 90%.

`Cc1[nH]c2nc(N)[nH]c(=O)c2c1Sc1ccc(C(=O)N[C@@H](CCC(=O)O)C(=O)O)cc1` showed an IC50 [3] of 2100 nM and an IC50 [4] of 21000 nM.

Work on `Nc1nc(N)c2nc(CNc3ccc(C(=O)N[C@@H](CCC(=O)O)C(=O)O)cc3)cnc2n1` yielded a Ratio [5] of 0.23.

With `CN(Cc1cnc2nc(N)nc(N)c2n1)c1ccc(C(=O)N[C@@H](CCC(=O)O)C(=O)O)cc1` [METHOTREXATE] the EC50 [6] was 2100 nM and the EC50 [7] was 680 nM.

For `Cc1[nH]c2nc(N)[nH]c(=O)c2c1Sc1ccc(C(=O)N[C@@H](CCC(=O)O)C(=O)O)c(F)c1`, the IC50 [8] was 720 nM, the EC50 [9] was 215 nM and the EC50 [6] was 2450 nM. The EC50 [10] was 305 nM, the relative growth at 5 µM [11] was 10 and the GI50 [12] was 712 nM. For the same molecule, the GI50 [13] was 6830 nM, the GI50 [14] was under 10 nM and the GI50 [15] was 347 nM. For the same molecule, the GI50 [16] was 383 nM, the GI50 [17] was 2210 nM and the Ratio [5] was 0. For the same molecule, the IC50 [18] was 54 nM, the IC50 [3] was 2100 nM and the IC50 [4] was 21000 nM. For the same molecule, the EC50 [7] was 505 nM.

Molecule `Cc1[nH]c2nc(N)[nH]c(=O)c2c1Sc1ccc(C(=O)N[C@@H](CCC(=O)O)C(=O)O)c(Cl)c1` has an IC50 [8] of 5100 nM, an EC50 [9] of 690 nM and an EC50 [6] of 12000 nM. It also gave an EC50 [10] of 1200 nM, an inhibition at 2.4 µM [19] of 11% and a GI50 [13] of 758 nM. For the same molecule, the GI50 [14] was 1480 nM, the GI50 [15] was 7440 nM and the GI50 [16] was 8540 nM. For the same molecule, the GI50 [17] was under 10 nM, the Ratio [5] was 0 and the IC50 [18] was 51 nM. The IC50 [3] was 11000 nM, the IC50 [4] was 40000 nM and the EC50 [7] was 1900 nM.

For `Cc1cn([C@H]2C[C@H](O)[C@@H](CO)O2)c(=O)[nH]c1=O` [DOXRIBTIMINE], the Activity [20] was 10%, the Activity [21] was 96% and the Activity [22] was 92%. For the same molecule, the Activity [23] was 40%.

B1: Folylpolyglutamate synthase, mitochondrial (Homo sapiens), Q05932 (protein)
chain: T3 sequence (whole entry)
Work on B1 yielded a Km [24] of under 250 µM, a Km [25] of under 250 µM and a Vmax [26] of 1. The Vmax [27] was 0 and the Vmax [28] was 0.

Reference: ChEMBL document CHEMBL1149301, “Benzoyl ring halogenated classical 2-amino-6-methyl-3,4-dihydro-4-oxo-5-substituted thiobenzoyl-7H-pyrrolo[2,3-d]pyrimidine antifolates as inhibitors of thymidylate synthase and as antitumor agents” (J Med Chem, 2004)
